Data reported in patent US9034916B2, “Pharmaceutical composition for the prevention or treatment of a neurodegenerative disease, comprising a Daphne genkwa extract or a compound isolated therefrom” (Korea Research Institute of Bioscience and Biotechnology, priority 2011, dated 2015).

Biological target: T1, Nurr1 protein (Homo sapiens, UniProt P43354)
T1 construct: three kinds of plasmid DNAs, including a DNA comprising Nurr1-LBD and a DNA having β-galactosidase, were transfected into BE(2)C cells; expressed in transfected cells; host or cells: BE(2)C human neuroblastoma cells
Assay: Nurr1 luciferase reporter assay in BE(2)C cells transfected with Nurr1-LBD
Type: cell-based
Description: A gene comprising eight repeats of a nucleotide sequence (5′-CTCGGAGGACAGTACTCCG-3, SEQ ID NO: 1) to which GLA4 gene can bind was linked to the reporter gene luciferase to synthesize a vector. Then, three kinds of plasmid DNAs, including a DNA comprising Nurr1-LBD and a DNA having β-galactosidase, were transfected into BE(2)C cells, and after 6 hours, the cells were treated with 1-200 ppm of the Daphne genkwa extract. The treated cells were incubated in a 5% CO2 incubator at 37° C. for 20 hours, and then subjected to a luciferase assay (FIG. 1).
FIG. 1 is a graphic diagram showing the results of a luciferase assay conducted to examine the change in Nurr1 protein activity as a function of the concentration of the Daphne genkwa extract. As a control, 0.1% DMSO was used, and the increase in activity was expressed as folds of the activity of the control. […]
The effects of the Daphne genkwa extract fractions, obtained using various solvents in Example 2, on Nurr1 protein activity, were analyzed according to a method similar to the method described in Example 3. […]
According to a method similar to the method described in Example 3, the concentration dependences of the effects of genkwanine N and yuanhuacine on the activity of Nurr1 protein were analyzed, and the results of the analysis are shown in FIG. 5.

T1 sequence (P43354 360-595 limits assumed): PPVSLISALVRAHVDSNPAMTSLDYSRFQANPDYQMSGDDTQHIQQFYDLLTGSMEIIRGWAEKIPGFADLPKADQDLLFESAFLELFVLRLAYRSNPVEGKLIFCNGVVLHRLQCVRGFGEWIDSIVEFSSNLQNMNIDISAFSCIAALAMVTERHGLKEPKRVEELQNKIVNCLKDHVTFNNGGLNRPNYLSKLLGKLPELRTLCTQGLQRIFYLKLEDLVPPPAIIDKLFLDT

SMILES	increase of activity of Nurr1 protein (16 nM (corresponding to 0.01 ppm)) [%]	increase of activity of Nurr1 protein (15 nM (corresponding to 0.01 ppm)) [%]
C=C(C)[C@]12C[C@@H](C)[C@@]34OC(c5ccccc5)(O[C@@H]1[C@@H]3[C@@H]1O[C@]1(CO)[C@@H](O)[C@@]1(O)[C@H]4C[C@H](C)[C@@H]1OC(=O)c1ccccc1)O2 [genkwanine N]	60	
C=C(C)[C@@]12OC3(/C=C/C=C/CCCCC)O[C@@H]1[C@@H]1[C@@H]4O[C@]4(CO)[C@@H](O)[C@]4(O)C(=O)C(C)=C[C@H]4[C@@]1(O3)[C@H](C)[C@H]2OC(=O)c1ccccc1 [yuanhuacine]		70
